Here are results for 85 molecules from PubChem BioAssay AID2305 (GlaxoSmithKline (GSK), 2010).

Structures are written as SMILES.

The assay deals with P. falciparum 3D7 growth, pLDH absorbance. Description: P. falciparum 3D7 growth inhibition, dose response, strain 3D7 (AID 2305).

For the molecule `CCN(CCO)CCc1cccc(Nc2nccc(-c3c(-c4ccc(NC(=O)C(C)(C)C)cc4)nn4ccccc34)n2)c1`, the IC50 – broadly, the point on the concentration scale where inhibition reaches its midpoint – came out at 710 nM. For the molecule `CNCc1ccc(-c2cccc(CNCc3ccc(-c4ccccc4)cc3)c2)c(C(=O)OC)c1`, the IC50 was 980 nM.

Turning to `Clc1ccc(C=NNc2ccnc3ccccc23)cc1`, the half-maximal inhibitory concentration (IC50) stood at 720 nM. Then `CN1CCN(c2ccnc3ccc(NC(=O)Cc4cccc(Cl)c4Cl)cc23)CC1`, with 790 nM; and `CS(=O)(=O)NCCCNCc1cccc(-c2cccc(-c3nc4ccc(F)cc4[nH]3)c2)c1`, with 940 nM. Then `Fc1ccc2c(NN=Cc3ccc(Cl)cc3)ccnc2c1`, with 750 nM; and `CN(C)C(=O)C(CC(=O)NCc1ccccc1Cl)N(C)C` (stereo not given) (tested in a mixture with another compound), with 900 nM; and `N#Cc1cccc(C(=O)Nc2cccc(-c3ccc(CN4CCC(O)CC4)cc3)c2)c1`, with 1300 nM. Then `O=C1CCCN1CCCNCc1cccc(-c2ccc(-c3nc4ccc(C(F)(F)F)cc4[nH]3)s2)c1`, with 450 nM. Molecule `Cc1cccc2[nH]c(-c3cccc(-c4ccc(NC(=O)CCc5cnc[nH]5)cc4)c3)nc12` displayed an IC50 of 300 nM.

Consider `CCN(CC)c1nc(N)c2c(N)nc3c(c2c1C#N)C(=O)CN3Cc1ccccc1`, for which the IC50 worked out at 70 nM. Then `COc1ccccc1-c1ccc(CNC(=O)C(CN2CCN(C)CC2)c2ccccc2)cc1` (stereo not given), with 1260 nM; and `N#Cc1ccc(NC(=O)Nc2ccc(OC(F)(F)F)cc2)cc1`, with 820 nM. The molecule `CC(C)CCN=C(N)Nc1ccc(OCCCCCOc2ccc(NC(N)=NCCC(C)C)cc2)cc1` returned an IC50 of 1080 nM. `CN(Cc1cccc(O)c1)C1CCN(c2cc(NC(=O)c3ccc(F)cc3)ccn2)C1` (stereo not given) came in with an IC50 of 1150 nM.

With `N#Cc1ccc2[nH]cc(CN3CCC4(CC3)CN(CCNCc3ccccc3)C(=O)O4)c2c1`, the IC50 amounted to 1160 nM.

`O=C1C=Cc2ccccc2/C1=C/c1sc(=NCc2ccccc2)n(Cc2ccccc2)c1O`: the IC50 stood at 160 nM. In the case of `NC(N)=NN=Cc1cc([N+](=O)[O-])ccc1Sc1ccccc1CO`, the IC50 was found to be 1460 nM. For `O=C([C@@H]1CCCCN1c1ccc([N+](=O)[O-])c2ccccc12)N1CCN(c2ncccn2)CC1`, the IC50 is 200 nM.

Regarding `COc1ccccc1C1CCN(C2CCC(NC(=O)/C=C/c3cc(C(F)(F)F)ccc3F)CC2)CC1` (stereo not given), the IC50 is 870 nM. The molecule `COc1ccccc1-n1ccnc1SCC(=O)Nc1cccc(C(F)(F)F)c1` showed a half-inhibitory concentration (IC50) of 160 nM.

The molecule `O=S(=O)(NCCN1CCCC1)c1ccc(-c2cccc(CNCc3ccc(F)cc3)c2)s1` showed an IC50 of 760 nM. Then `Cc1[nH]c(C)c(-c2ccc(OCc3ccc(OC(F)(F)F)cc3)nc2)c(=O)c1Br`, with 140 nM; and `NC(=O)c1cnc2cc(-c3ccoc3)ccc2c1Nc1ccc(NC(=O)Nc2ccccc2Cl)cc1`, with 540 nM; and `COc1ccc2ccccc2c1CNCCCCCCNCc1c(OC)ccc2ccccc12`, with 710 nM. Consider `OC(CNCc1ccccc1Oc1ccccc1)c1cc(Br)cs1` (stereo not given), for which the IC50 was determined as 1110 nM. Then `O=[N+]([O-])c1cc(/C=N/Nc2nc3ccccc3[nH]2)ccc1O`, with 950 nM. `COc1ccc(-c2cc(-c3nc4ccc(C(=O)N5CCOCC5)cc4[nH]3)c(=O)n(C)c2)cc1OC` had a half-maximal inhibitory concentration (IC50) of 860 nM.

Take `C=C[C@]1(C)C[C@@H](OC(=O)NC(=O)C2CCN(C(=O)CSc3ccccc3)CC2)[C@]2(C)[C@H](C)CC[C@]3(CCC(=O)[C@H]32)[C@@H](C)[C@@H]1O`: the IC50 was 1010 nM. Molecule `CC(C)N1CCC(N(Cc2ccc(-c3ccc(C(F)(F)F)cc3)cc2)C(=O)Cn2c(CCc3cccc(F)c3F)nc(=O)c3cccnc32)CC1` returned an IC50 of 640 nM.

In the case of `COc1ccc2nc(-c3ccc(F)cc3)cc([C@@H](O)[C@@H]3C[C@@H]4CCN3CC4C=NO)c2c1` (stereo not given in full), the IC50 was 250 nM. Then `N=c1n(Cc2ccc(Cl)cc2)c2ccccc2n1CC(O)c1ccc(Cl)c(Cl)c1` (stereo not given), with 680 nM; and `Nc1nc(N)c2c(CCc3ccc4ccccc4c3)cccc2n1`, with 690 nM. With `COc1cccc2cc(C(=O)N[C@@H](CC(C)C)C(=O)N[C@H](/C=N/N(C)C(=O)OC(C)(C)C)Cc3ccccc3)oc12`, the IC50 was 260 nM. On to `COc1ccc(Cl)cc1C(=O)Nc1ccc(-c2nc3ccccc3[nH]2)cc1`, for which the IC50 is 770 nM. Then `COc1cccc(C(=O)Nc2ccc(S(=O)(=O)c3cc4c(cc3OC)CCN(C)CC4)cc2)c1`, with 1100 nM; and `CCCN(CCC)CCOC(=O)C(OCC)(c1ccccc1)c1ccccc1`, with 870 nM; and `CC[C@H]1CN2CC[C@@H]1C[C@H]2[C@H](O)c1cc(N2CCSCC2)nc2ccc(OC)cc12`, with 200 nM.

Take `CN(c1ccc(NC(=O)Nc2cc(C(C)(C)C)on2)cc1)c1ccnc(NCCOC(=O)Nc2cc(C(C)(C)C)on2)n1`: the IC50 worked out at 750 nM. Then `O=C(c1ccc(OCCn2ccnc2)cc1)N1CCC(c2ccc(Br)cc2)C1` (stereo not given), with 120 nM. Turning to `CCC(C)NS(=O)(=O)c1ccc2nc(Nc3ccc(C)c(Cl)c3)n(C(C)C(C)C)c2c1` (stereo not given), the IC50 worked out at 380 nM.

The molecule `CN(Cc1ccccc1)C(=O)c1nn(CCCN2CCC(N3CCCC3)CC2)cc1-c1ccc(Cl)c(Cl)c1` had an IC50 of 770 nM.

For `NS(=O)(=O)Cc1cccc(-c2ccnc3ccc(-c4cccc(S(N)(=O)=O)c4)cc23)c1`, the IC50 is 1560 nM. Then `COc1ccc2nc3cc(Cl)ccc3c(Nc3ccc(Sc4ccc(Nc5c6ccc(Cl)cc6nc6ccc(OC)cc56)cc4)cc3)c2c1`, with 200 nM. Then `CCN(CCCN1CCCCC1)c1cc(C)nc(Nc2cc(Cl)ccc2C)n1`, with 630 nM.

For `Fc1cccc(C=NNc2ccnc3ccccc23)c1`, the half-maximal inhibitory concentration (IC50) was 840 nM. Turning to `O=C(Nc1cccc(OC2CCN(Cc3ccsc3)CC2)c1)c1ccc(C(F)(F)F)cc1`, the IC50 was found to be 770 nM. Then `Cc1ccc(-c2nnc3c4ccccc4c(C)nn23)cc1S(=O)(=O)N1CCN(CCO)CC1`, with 670 nM; and `N#Cc1ccc(CNCCCCCCCNCc2ccc(-c3ccccc3)cc2)cc1`, with 970 nM.

Turning to `Nc1c2c(nc3ccc(C(=O)Nc4ccc(Br)cc4)cc13)CCCC2`, the IC50 is 150 nM. `CCOC(C(=O)OCC1CCCN1C)(c1ccccc1)c1ccccc1` (stereo not given) registered an IC50 of 860 nM. Then `COc1ccc(Cc2nc(N=C(N)Nc3ccccc3)ccc2OC)cc1`, with 850 nM. Then `CN(C)CCc1c[nH]c2ccc(C(=O)Nc3ccc(-c4ccncc4)cc3)cc12`, with 570 nM. Then `CCN(CCCN1CCCCC1)c1cc(C)nc(Nc2ccc(C)cc2Cl)n1`, with 340 nM; and `CCC(C)NS(=O)(=O)c1ccc2nc(Nc3ccc(C)c(Cl)c3)n([C@H](C)C(C)(C)C)c2c1` (stereo not given in full), with 380 nM; and `CN(CCCN(C)c1cc(NC(=O)c2ccc(F)cc2)ccn1)Cc1cccc(F)c1`, with 1220 nM.

Molecule `Cc1ccc(O)c(-c2cc(C(=O)Nc3ccc(S(=O)(=O)N4CCCCC4)cc3)[nH]n2)c1` displayed a 50% inhibitory concentration (IC50) of 810 nM. Then `COc1ccc2nc(-c3ccccc3)cc(NN=Cc3ccc([N+](=O)[O-])o3)c2c1`, with 200 nM; and `O=C(Nc1ccc(Cl)cc1)c1cccc2[nH]c(C(F)(F)F)nc12`, with 760 nM. Then `CCC[C@@H]([C@@H](CC(C)C)C(=O)N[C@@H](CCCCNC(=O)c1ccccn1)C(=O)Nc1nccs1)N(O)C=O`, with 50 nM; and `Cc1cc(Cl)c(S(=O)(=O)NC2CCCC2)cc1OCC(=O)NC1CCCCC1`, with 380 nM; and `COc1ccc(CNCCCCCCNCCc2ccc(Cl)cc2)cc1OC`, with 1390 nM. As for `CCCCCCNC(=O)C1Cc2c([nH]c3ccccc23)C2(CCN(CCc3ccccc3)CC2)N1` (stereo not given), the IC50 was 1140 nM. `CC(C)(C)S[C@H]1S[C@H](SC(C)(C)C)[C@@H](OC(=O)c2ccccc2)C(OC(=O)c2ccccc2)[C@H]1OC(=O)c1ccccc1` (stereo not given in full) came in with an IC50 of 940 nM. Take `FC(F)(F)c1cccc(CCNc2nccc(NCc3ccc(Cl)cc3Cl)n2)c1`: the IC50 was 860 nM. As for `O=C(NC1CCC(CN2CCC(c3c[nH]c4ccccc34)CC2)CC1)c1cc(-c2ccccc2Cl)n(-c2cccc(Cl)c2)n1` (stereo not given), the IC50 was 850 nM. Molecule `O=C(/C=C/c1ccc(Cl)c(Cl)c1)NC1CCN(CCNC(=O)c2cccc(Cl)c2)CC1` had an IC50 of 550 nM. For the molecule `CCOC(=O)CNC(=O)N1CCN(C(=O)NCC(=O)OCC)CC1`, the IC50 was found to be 850 nM. Regarding `Cc1cc(NN=Cc2ccc(F)cc2)c2cc(F)ccc2n1`, the IC50 was 640 nM. Then `Cn1ncc2ccc(Nc3nccc(-c4ccc5c(c4)c(N)nn5C)n3)cc21`, with 650 nM; and `COCCCNc1nc2cc(OC)c(OC)cc2c2nc(-c3ccccc3)nn12`, with 190 nM. The molecule `CN1CCC(C(=O)Nc2cccc(-c3ccc(-c4nc5ccc(C(F)(F)F)cc5[nH]4)s3)c2)CC1` had an IC50 of 720 nM. Then `COc1ccc(COc2cc(NCCCN)nc3ccccc23)cc1`, with 1280 nM; and `COc1ccc2nccc([C@@H](O)CN3CCC(NC(=O)CCC(=O)c4cc(C(C)(C)C)ccc4OC)CC3)c2c1`, with 850 nM; and `c1ccc(CNCc2cccc(-c3csc(-c4nc5ccccc5[nH]4)c3)c2)cc1`, with 460 nM.

`COc1ccc2nccc([C@@H](O)CN3CCC(NC(=O)c4ccc5nc(-n6cccc6)sc5c4)CC3)c2c1` returned an IC50 of 1000 nM. Regarding `Cc1ccccc1C1CCN(C2CCC(NC(=O)/C=C/c3ccc4c(c3)OC(F)(F)O4)CC2)CC1` (stereo not given), the IC50 was 670 nM. Then `CC(C)(C)CNCC(C)(C)c1nc(-c2ccc(Cl)c(O)c2)c(-c2ccncc2)[nH]1`, with 600 nM; and `CN1CCN(c2cc3c(cc2Cl)CCN3C(=O)Cc2ccc(Cl)c(NC(=O)Nc3cccc([N+](=O)[O-])c3)c2)CC1`, with 720 nM.

`COc1ccccc1-c1sccc1C(=O)NC1(c2cc(Cl)cc(Cl)c2)CCCC1` yielded an IC50 of 940 nM. Molecule `O=c1cc(NCCCNCc2cc3c(Cl)cc(Cl)cc3[nH]2)[nH]c2ccccc12` had an IC50 of 860 nM. In the case of `CCCCN(CCCC)C(=NCCCCCCN=C(NC(N)=NCc1ccc(Cl)c(Cl)c1)N(CCCC)CCCC)NC(N)=NCc1ccc(Cl)c(Cl)c1`, the IC50 was determined as 400 nM.

Regarding `O=C(NCC1CCN(Cc2ccc(F)cc2)C1)c1cc(-c2cccc(C(F)(F)F)c2)cs1` (stereo not given), the IC50 was determined as 960 nM. Then `COc1ccc(NC(=O)[C@H](CC(C)C)Nc2cc(C)nc(NCCc3ccc(F)cc3)n2)cc1`, with 920 nM. Then `N/C(=N/C(=NCCCCCCN=C(/N=C(/N)Nc1ccc(Cl)cc1)N1CCCCC1)N1CCCCC1)Nc1ccc(Cl)cc1`, with 260 nM.
